# Values of other authors, collected in patent US20140080846A1, “Method of treating orphan respiratry diseases using doxofylline” (priority 2012, published 2014).
# How the values were obtained:
# [1] = for subjects dropped out of the study due to side effects: large randomized clinical study, 12 week testing period, asthma patients
# [2] = intravenous, CF patients
Compound,efficacy in treating chronic asthma ([1]; compared to theophylline),subjects dropped out of the study due to side effects [1],effect on Forced Expiratory Volume at 1 second (FEV1) and Forced Expiratory Flow at 0.75 seconds (FEF 0.75) [2],patients treated in an emergency setting for overdose who die
"Cn1c(=O)c2c(ncn2CC2OCCO2)n(C)c1=O [doxofylline, 7-(1,3-dioxolan-2-ylmethyl)-1,3-dimethylpurine-2,6-dione]",as effective as theophylline,11%,,
Cn1c(=O)c2[nH]cnc2n(C)c1=O [theophylline],,31%,positive results,Ten
